For experiment [1], the system named is HDAC. Briefly: Inhibition of isolated HDAC, commercial Fluor de Lys assay (HeLa cell nuclear extract). The note with it: 1 μM inhibitor; average of three determinations. Type of experiment: biochemical. Here is the method: This is a facile and rapid 96-well plate-based assay that is suitable for use as a high throughput screen. The reaction mixture contains a HeLa cell nuclear extract and a commercial substrate containing acetylated lysine side chains. The substrate and extract are incubated in the presence of the appropriate concentration of the inhibitor. Deacetylation of the substrate followed by mixing with the provided developer generates a fluorophore. Comparison of inhibited vs. control relative fluorescence using a standard plate reader is employed to determine percent HDAC activity remaining. All determinations can be carried out in triplicate, and reported values can be the average of these determinations.
Compounds were evaluated for their ability to inhibit isolated HDAC at 1 μM in the Fluor de Lys™ assay system.

The test system of experiment [2] is ML-1 human myelocytic leukemia line. Briefly: Cell viability in ML-1 cells, direct cell count. Type of experiment: cell-based. The note with it: ML1, 3 and 7 days of exposure, read-out: IC50, toxicity to ML-1 cells (direct cell count). How it is done: ML-1 cells were maintained in RPMI medium supplemented with 10% fetal calf serum, 0.1 mg/mL gentamicin, and 2 mM L-glutamine. 3×10^5 cells/ml were treated with 1 (Wako Pure Chemicals, Richmond, Va.), 2 (Mitsui Pharmaceuticals, Chiba, Japan) and the desired test compound for the concentration and time indicated in the figure legend.
Compound 19 was evaluated in a series of cell viability studies in the ML-1 human myelocytic leukemia line. The results of these studies are outlined in FIGS. 4-7. Compound 19, as well as the positive controls TSA and MS-275, were compared at concentrations between 0.1 and 100 μM, and cell viability was determined in the ML-1 cultured cell preparation at 3 days (FIG. 4) and 7 days (FIG. 5) using a standard MTT assay. […] In a separate set experiments, cell viability was determined under the same conditions by direct cell count. As before, TSA and MS-275 produced significant toxicity at both 3 and 7 days, again with IC50 values less than 10 μM.

The test system is the same in experiment [3]. Briefly: Cell viability in ML-1 cells, MTT assay. The following applies: ML1, 3 days and 7 days of exposure, 0.1 to 100 μM, read-out: IC50, toxicity to ML-1 cells (MTT). Type of experiment: cell-based. The source says:
The well characterized ML-1 human myelocytic leukemia cell line was used to obtain the results presented below in the Examples section. This line has a well characterized response to HDAC inhibitors and is amenable for use in rapid in vitro screening of compounds to evaluate growth inhibitory effects. In addition to the ML-1 cells, the well characterized HCT 116 human colon adenocarcinoma may be used. […]
The MTT (3-[4,5-dimethylthiazol-2-yl]2,5-diphenyl tetrazolium bromide) reduction assay for growth inhibition studies may also be employed. […] HCT 116 cells are seeded at a density of 5×10^4 cells/ml and ML-1 cells are seeded at 2×10^4/ml and are treated for a period of 96 hr prior to dye reduction and plate reading. […]
Compound 19 was evaluated in a series of cell viability studies in the ML-1 human myelocytic leukemia line. […] Compound 19, as well as the positive controls TSA and MS-275, were compared at concentrations between 0.1 and 100 μM, and cell viability was determined in the ML-1 cultured cell preparation at 3 days (FIG. 4) and 7 days (FIG. 5) using a standard MTT assay. […] In a separate set experiments, cell viability was determined under the same conditions by direct cell count. […]
For orientation: Tetrazolium dyes change colour on reduction, which living cells bring about.

In experiment [4] the test system is HDAC. Put plainly: Inhibition of isolated HDAC, commercial Fluor de Lys assay (HeLa cell nuclear extract). More on the design: dose or concentration left out as unconfirmed. Type of experiment: biochemical. The note with it: TSA as positive control.

Where a name gives a salt, the structure may show the parent alone. Some results are limits rather than exact numbers.

What is called IC50 is the point on the concentration scale where inhibition reaches its midpoint.

With `O=C(CCCCCCCCC(=O)NCCCNCCCCNCCC(c1ccccc1)c1ccccc1)NO` [Compound 69], in the experiment with HDAC [1], the “Inhibition of HDAC at 1 μM (%)” value stood at 73%.
Still for that read-out and setting: to `CN(C)c1ccc(CN(CCCNCCCCN)C(=O)CCCCCCC(=O)NO)cc1` [Compound 72] belongs 58%.
Turning to `CN(C)c1ccc(CNCCCCNC(=O)CCCCC(=O)NO)cc1` [Compound 16, 5-{4-[4-N,N-(Dimethyl)aminobenzyl]amino}butylcarbamoylpentanohydroxamic Acid], in the experiment with HDAC [1], the “Inhibition of HDAC at 1 μM (%)” value was 10.32%.
The same measure, in the same setting: with `O=C(CCCCC(=O)NCCCNCCCNCCCNCCCNCC1CCCCCC1)NO` [Compound 9, 22-(N-[2-(Cycloheptyl)methyl]amino)-6-oxo-7,11,15,19-tetraazadocosanohydroxamic Acid] the figure was 41.03%.
With `CC(/C=C/C(=O)NO)=C\[C@@H](C)C(=O)c1ccc(N(C)C)cc1` [Compound 1, trichostatin], the “Inhibition of HDAC at 1 μM (%)” value in the experiment on HDAC [1] amounted to 100%. For the same compound, the IC50 in experiment [2] and in experiment [3] was under 10 µM throughout.
Turning to `CN(C)c1ccc(CNCCCCNC(=O)CCCCCCC(=O)NO)cc1` [Compound 12, 7-{4-[4-N,N-(Dimethylamino)benzyl]aminobutyl}-carbamoylheptanohydroxamic Acid], the “Inhibition of HDAC at 1 μM (%)” value in the experiment with HDAC [1] is listed as 33.89%.
Turning to `Cc1ccc(CNCCCCNC(=O)CCCCCCC(=O)NO)cc1` [Compound 17, 7-{4-[4-(Methyl)benzyl]aminobutyl}carbamoylheptanohydroxamic Acid], in the experiment with HDAC [1], the “Inhibition of HDAC at 1 μM (%)” value is on record as 53.2%.
With `CC(C)(C)c1ccc(CNCCCCNCCCNC(=O)CCCCC(=O)NO)cc1` [Compound 11, 15-N-[(4-tert-Butyl)benzyl]amino-6-oxo-7,11-diazapentadecanohydroxamic Acid dihydrobromide], in the experiment with HDAC [4], the “Dose-response for inhibition of HDAC (relative potency)” value is “essentially equipotent”. Moreover, in the experiment with HDAC [1], the “Inhibition of HDAC at 1 μM (%)” value came out at 74.86%.
As for `O=C(CCCCCCCC(=O)NCCCNCCCCNCCC(c1ccccc1)c1ccccc1)NO` [Compound 71], the “Inhibition of HDAC at 1 μM (%)” value with HDAC [1] is 54%.
Same read-out and setting: with `CC(C)(C)c1ccc(CNCCCCNCCCNC(=O)CCCCCCC(=O)NO)cc1` [Compound 15, dihydrobromide] the figure was 49.36%.
Consider `Nc1ccccc1NC(=O)c1ccc(CNC(=O)OCc2cccnc2)cc1` [Compound 2, MS-275], for which the “Inhibition of HDAC at 1 μM (%)” value in the experiment on HDAC [1] was found to be 100%. The concentration for half-maximal inhibition (IC50) in experiment [2] and in experiment [3] was under 10 µM throughout.
As for `O=C(CCCCC(=O)NCCCNCCCCNCCC(c1ccccc1)c1ccccc1)NO` [Compound 20, 15-N-[4-(3,3-diphenyl)propyl]amino-6-oxo-7,11-diazapentadecanohydroxamic Acid dihydrobromide], the “Inhibition of HDAC at 1 μM (%)” value in the experiment on HDAC [1] was 19.75%.
On the same count and under the same terms, with `Cc1ccc(CNCCCCNC(=O)CCCCC(=O)NO)cc1` [Compound 7, 5-{4-[4-(Methyl)benzyl]aminobutyl}carbamoylpentanohydroxamic Acid] the figure was 44.17%.
The same measure, in the same setting: with `O=C(CCCCCC(=O)NCCCNCCCCNCCC(c1ccccc1)c1ccccc1)NO` [Compound 70] the figure was 46%.
`CN(C)c1ccc(CN(CCCNCCCCN)C(=O)CCCCC(=O)NO)cc1` [Compound 14]: in the experiment with HDAC [4], the “Dose-response for inhibition of HDAC (relative potency)” value is recorded as “essentially equipotent”. Further, the “Inhibition of HDAC at 1 μM (%)” value in the experiment on HDAC [1] was 59.99%.
Turning to `CN(C)c1ccc(CCNCCCCNCCCNC(=O)CCCCCCC(=O)NO)cc1` [Compound 68], in the experiment on HDAC [1], the “Inhibition of HDAC at 1 μM (%)” value came to 46%.
Same read-out and setting: to `CC(C)(C)c1ccc(CNCCCCNCCCNC(=O)CCCCC(=O)O)cc1` [Compound 13] belongs 1.48%; to `O=C(CCCCCCC(=O)NCCCNCCCNCCCNCCC(c1ccccc1)c1ccccc1)NO` [Compound 67], 55%; to `O=C(CCCCC(=O)NCCCCN(Cc1ccccc1-c1ccccc1)Cc1ccccc1-c1ccccc1)NO` [Compound 10], 3.74%.
The same measure, in the same setting: with `CN(C)c1ccc(CN(CCCCN)C(=O)CCCCCCC(=O)NO)cc1` [Compound 18, 7-{[4-(Amino)butyl]-N-[4-(dimethylaminobenzyl)-carbamoyl]}heptanohydroxamic Acid] the figure was 15.6%; with `O=C(CCCCC(=O)NCCCCNCc1ccccc1-c1ccccc1)NO` [Compound 5, 5-{4-[2-(Phenyl)benzyl]aminobutyl}carbamoylpentanohydroxamic Acid], 16.34%.
